Data reported in publication PMC8401933 (Molecules, 2021).

Experiments:
Test in all cases: KINOMEscan binding
Conditions in all cases: read-out: Percent Control
PLK1 = target: T1, PLK1 (Homo sapiens, UniProt P53350)
T1 construct: purchased Eurofins DiscoverX KINOMEscan

PRKG1 = target: T2, PRKG1 (Homo sapiens, UniProt Q13976)
T2 construct: purchased Eurofins DiscoverX KINOMEscan

PKN2 = target: T3, PKN2 (Homo sapiens, UniProt Q16513)
T3 construct: purchased Eurofins DiscoverX KINOMEscan

[1] = target: T4, RSK4(Kin.Dom.1-N-terminal) (Homo sapiens, UniProt Q9UK32)
T4 construct: RSK4(Kin.Dom.1-N-terminal); purchased Eurofins DiscoverX KINOMEscan
T4 sequence (Q9UK32 1-400 limits assumed): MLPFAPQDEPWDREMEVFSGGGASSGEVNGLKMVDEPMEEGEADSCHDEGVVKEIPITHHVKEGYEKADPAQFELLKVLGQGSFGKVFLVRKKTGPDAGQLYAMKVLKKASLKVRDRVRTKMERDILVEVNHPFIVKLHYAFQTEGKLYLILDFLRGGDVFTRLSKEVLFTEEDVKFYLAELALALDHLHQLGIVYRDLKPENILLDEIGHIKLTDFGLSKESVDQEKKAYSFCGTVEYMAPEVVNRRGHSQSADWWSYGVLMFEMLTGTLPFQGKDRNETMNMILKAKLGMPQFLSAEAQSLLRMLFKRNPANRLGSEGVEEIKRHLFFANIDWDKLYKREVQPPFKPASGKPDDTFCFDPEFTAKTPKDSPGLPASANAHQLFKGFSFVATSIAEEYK

RIPK2 = target: T5, RIPK2 (Homo sapiens, UniProt O43353)
T5 construct: purchased Eurofins DiscoverX KINOMEscan

MEK4 = target: T6, MEK4 (Homo sapiens, UniProt P45985)
T6 construct: purchased Eurofins DiscoverX KINOMEscan

ACVRL1 = target: T7, ACVRL1 (Homo sapiens, UniProt P37023)
T7 construct: purchased Eurofins DiscoverX KINOMEscan

DYRK2 = target: T8, DYRK2 (Homo sapiens, UniProt Q92630)
T8 construct: purchased Eurofins DiscoverX KINOMEscan
T8 sequence (Q92630 whole entry): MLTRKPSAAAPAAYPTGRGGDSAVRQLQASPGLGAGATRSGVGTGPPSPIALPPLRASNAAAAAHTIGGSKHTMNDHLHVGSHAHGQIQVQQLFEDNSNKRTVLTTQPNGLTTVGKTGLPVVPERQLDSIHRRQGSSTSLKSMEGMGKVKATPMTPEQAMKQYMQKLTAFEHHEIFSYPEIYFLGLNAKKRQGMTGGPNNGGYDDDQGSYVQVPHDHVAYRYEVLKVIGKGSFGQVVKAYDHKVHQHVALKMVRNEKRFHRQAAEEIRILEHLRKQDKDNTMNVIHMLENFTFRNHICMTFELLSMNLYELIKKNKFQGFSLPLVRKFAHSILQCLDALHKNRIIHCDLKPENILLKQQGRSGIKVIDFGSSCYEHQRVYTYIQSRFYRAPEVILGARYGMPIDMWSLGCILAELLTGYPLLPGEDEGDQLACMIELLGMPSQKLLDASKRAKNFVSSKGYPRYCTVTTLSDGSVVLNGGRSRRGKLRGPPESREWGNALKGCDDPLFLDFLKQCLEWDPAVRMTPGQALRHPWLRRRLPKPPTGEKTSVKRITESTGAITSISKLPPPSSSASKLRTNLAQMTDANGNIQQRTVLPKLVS

KIT(D816V) = target: T9, KIT(D816V) (Homo sapiens, UniProt P10721, D816V)
T9 construct: purchased Eurofins DiscoverX KINOMEscan

CAMK4 = target: T10, CAMK4 (Homo sapiens, UniProt Q16566)
T10 construct: purchased Eurofins DiscoverX KINOMEscan

ACVR1 = target: T11, ACVR1 (Homo sapiens, UniProt Q04771)
T11 construct: purchased Eurofins DiscoverX KINOMEscan

SIK = target: T12, SIK (Homo sapiens, UniProt P57059)
T12 construct: purchased Eurofins DiscoverX KINOMEscan

AMPK-alpha2 = target: T13, AMPK-alpha2 (Homo sapiens, UniProt P54646)
T13 construct: purchased Eurofins DiscoverX KINOMEscan
T13 sequence (P54646 whole entry): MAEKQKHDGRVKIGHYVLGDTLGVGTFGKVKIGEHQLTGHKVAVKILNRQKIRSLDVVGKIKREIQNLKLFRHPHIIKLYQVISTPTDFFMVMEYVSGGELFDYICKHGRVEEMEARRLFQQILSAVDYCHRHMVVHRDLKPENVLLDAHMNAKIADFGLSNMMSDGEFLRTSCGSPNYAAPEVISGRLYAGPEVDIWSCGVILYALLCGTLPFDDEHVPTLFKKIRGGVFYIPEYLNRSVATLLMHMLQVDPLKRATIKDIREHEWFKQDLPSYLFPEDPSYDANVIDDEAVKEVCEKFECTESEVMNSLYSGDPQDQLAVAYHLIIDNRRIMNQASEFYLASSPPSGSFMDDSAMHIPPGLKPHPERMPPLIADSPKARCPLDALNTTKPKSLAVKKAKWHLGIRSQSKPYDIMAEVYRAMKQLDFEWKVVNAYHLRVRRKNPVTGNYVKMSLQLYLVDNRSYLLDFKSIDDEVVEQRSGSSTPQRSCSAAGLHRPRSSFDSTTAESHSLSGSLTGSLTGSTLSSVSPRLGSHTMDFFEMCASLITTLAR

AKT3 = target: T14, AKT3 (Homo sapiens, UniProt Q9Y243)
T14 construct: purchased Eurofins DiscoverX KINOMEscan
T14 sequence (Q9Y243 whole entry): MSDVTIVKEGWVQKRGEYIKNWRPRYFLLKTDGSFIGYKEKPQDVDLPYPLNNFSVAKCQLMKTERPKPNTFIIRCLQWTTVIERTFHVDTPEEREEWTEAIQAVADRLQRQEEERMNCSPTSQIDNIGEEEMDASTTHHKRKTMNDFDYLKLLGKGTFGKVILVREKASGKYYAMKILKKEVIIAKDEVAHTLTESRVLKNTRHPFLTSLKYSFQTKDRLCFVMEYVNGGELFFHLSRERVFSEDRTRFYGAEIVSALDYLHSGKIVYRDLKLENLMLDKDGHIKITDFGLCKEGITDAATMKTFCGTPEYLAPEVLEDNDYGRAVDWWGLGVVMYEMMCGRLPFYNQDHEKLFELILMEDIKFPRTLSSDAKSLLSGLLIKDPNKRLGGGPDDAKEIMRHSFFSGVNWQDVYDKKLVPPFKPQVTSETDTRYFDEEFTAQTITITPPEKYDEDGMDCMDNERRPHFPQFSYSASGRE

RIOK3 = target: T15, RIOK3 (Homo sapiens, UniProt O14730)
T15 construct: purchased Eurofins DiscoverX KINOMEscan

TNK1 = target: T16, TNK1 (Homo sapiens, UniProt Q13470)
T16 construct: purchased Eurofins DiscoverX KINOMEscan

DRAK2 = target: T17, DRAK2 (Homo sapiens, UniProt O94768)
T17 construct: purchased Eurofins DiscoverX KINOMEscan
T17 sequence (O94768 whole entry): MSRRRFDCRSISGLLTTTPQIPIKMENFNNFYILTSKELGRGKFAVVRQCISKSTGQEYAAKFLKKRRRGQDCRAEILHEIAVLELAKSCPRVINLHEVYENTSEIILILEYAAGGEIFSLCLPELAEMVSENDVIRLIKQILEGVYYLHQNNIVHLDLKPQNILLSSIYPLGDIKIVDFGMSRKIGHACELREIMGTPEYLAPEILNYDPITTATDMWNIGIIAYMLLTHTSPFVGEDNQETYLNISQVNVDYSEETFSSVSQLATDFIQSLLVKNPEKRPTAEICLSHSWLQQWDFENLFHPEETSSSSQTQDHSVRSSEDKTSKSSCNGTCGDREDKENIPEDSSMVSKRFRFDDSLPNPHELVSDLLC

FLT3(N841I) = target: T18, FLT3(N841I) (Homo sapiens, UniProt P36888, N841I)
T18 construct: purchased Eurofins DiscoverX KINOMEscan

PIK3C2B = target: T19, PIK3C2B (Homo sapiens, UniProt O00750)
T19 construct: purchased Eurofins DiscoverX KINOMEscan

YANK2 = target: T20, YANK2 (Homo sapiens, UniProt Q9NY57)
T20 construct: purchased Eurofins DiscoverX KINOMEscan

FLT3(D835Y) = target: T21, FLT3(D835Y) (Homo sapiens, UniProt P36888, D835Y)
T21 construct: purchased Eurofins DiscoverX KINOMEscan

ARK5 = target: T22, ARK5 (Homo sapiens, UniProt O60285)
T22 construct: purchased Eurofins DiscoverX KINOMEscan

CAMKK2 = target: T23, CAMKK2 (Homo sapiens, UniProt Q96RR4)
T23 construct: purchased Eurofins DiscoverX KINOMEscan
T23 sequence (Q96RR4 whole entry): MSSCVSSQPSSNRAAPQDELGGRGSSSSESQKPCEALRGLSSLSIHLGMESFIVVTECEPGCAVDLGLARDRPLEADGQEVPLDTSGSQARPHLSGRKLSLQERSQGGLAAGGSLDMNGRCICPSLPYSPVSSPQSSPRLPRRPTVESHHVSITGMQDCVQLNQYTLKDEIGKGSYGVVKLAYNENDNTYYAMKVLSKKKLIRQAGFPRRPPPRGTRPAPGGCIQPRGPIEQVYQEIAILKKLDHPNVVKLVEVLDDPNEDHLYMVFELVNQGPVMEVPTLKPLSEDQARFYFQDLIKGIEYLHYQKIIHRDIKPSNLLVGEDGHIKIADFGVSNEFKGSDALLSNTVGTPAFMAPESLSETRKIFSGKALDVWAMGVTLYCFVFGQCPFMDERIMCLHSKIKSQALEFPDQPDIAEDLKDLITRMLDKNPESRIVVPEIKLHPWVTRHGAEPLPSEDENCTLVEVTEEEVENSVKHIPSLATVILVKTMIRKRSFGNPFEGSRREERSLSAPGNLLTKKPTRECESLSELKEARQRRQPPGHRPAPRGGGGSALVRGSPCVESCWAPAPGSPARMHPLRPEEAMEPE

MEK1 = target: T24, MEK1 (Homo sapiens, UniProt Q02750)
T24 construct: purchased Eurofins DiscoverX KINOMEscan

PIK3CA(Q546K) = target: T25, PIK3CA(Q546K) (Homo sapiens, UniProt P42336, Q546K)
T25 construct: purchased Eurofins DiscoverX KINOMEscan

PRKD1 = target: T26, PRKD1 (Homo sapiens, UniProt Q15139)
T26 construct: purchased Eurofins DiscoverX KINOMEscan

TNIK = target: T27, TNIK (Homo sapiens, UniProt Q9UKE5)
T27 construct: purchased Eurofins DiscoverX KINOMEscan

CSNK1E = target: T28, CSNK1E (Homo sapiens, UniProt P49674)
T28 construct: purchased Eurofins DiscoverX KINOMEscan

RIPK1 = target: T29, RIPK1 (Homo sapiens, UniProt Q13546)
T29 construct: purchased Eurofins DiscoverX KINOMEscan

RET(V804M) = target: T30, RET(V804M) (Homo sapiens, UniProt P07949, V804M)
T30 construct: purchased Eurofins DiscoverX KINOMEscan

NEK6 = target: T31, NEK6 (Homo sapiens, UniProt Q9HC98)
T31 construct: purchased Eurofins DiscoverX KINOMEscan
T31 sequence (Q9HC98 whole entry): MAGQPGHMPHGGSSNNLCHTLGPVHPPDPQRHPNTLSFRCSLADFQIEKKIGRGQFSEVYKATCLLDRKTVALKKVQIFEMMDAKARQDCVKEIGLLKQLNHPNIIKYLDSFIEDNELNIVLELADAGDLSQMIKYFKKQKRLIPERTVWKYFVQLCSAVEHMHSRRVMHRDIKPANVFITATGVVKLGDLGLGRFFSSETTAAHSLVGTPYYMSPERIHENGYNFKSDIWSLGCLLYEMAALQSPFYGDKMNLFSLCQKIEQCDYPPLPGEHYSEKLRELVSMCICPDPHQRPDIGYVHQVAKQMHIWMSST

JNK1 = target: T32, JNK1 (Homo sapiens, UniProt P45983)
T32 construct: purchased Eurofins DiscoverX KINOMEscan

CHEK2 = target: T33, CHEK2 (Homo sapiens, UniProt O96017)
T33 construct: purchased Eurofins DiscoverX KINOMEscan

PIK3CA(E542K) = target: T34, PIK3CA(E542K) (Homo sapiens, UniProt P42336, E542K)
T34 construct: purchased Eurofins DiscoverX KINOMEscan

TAK1 = target: T35, TAK1 (Homo sapiens, UniProt O43318)
T35 construct: purchased Eurofins DiscoverX KINOMEscan
T35 sequence (O43318 whole entry): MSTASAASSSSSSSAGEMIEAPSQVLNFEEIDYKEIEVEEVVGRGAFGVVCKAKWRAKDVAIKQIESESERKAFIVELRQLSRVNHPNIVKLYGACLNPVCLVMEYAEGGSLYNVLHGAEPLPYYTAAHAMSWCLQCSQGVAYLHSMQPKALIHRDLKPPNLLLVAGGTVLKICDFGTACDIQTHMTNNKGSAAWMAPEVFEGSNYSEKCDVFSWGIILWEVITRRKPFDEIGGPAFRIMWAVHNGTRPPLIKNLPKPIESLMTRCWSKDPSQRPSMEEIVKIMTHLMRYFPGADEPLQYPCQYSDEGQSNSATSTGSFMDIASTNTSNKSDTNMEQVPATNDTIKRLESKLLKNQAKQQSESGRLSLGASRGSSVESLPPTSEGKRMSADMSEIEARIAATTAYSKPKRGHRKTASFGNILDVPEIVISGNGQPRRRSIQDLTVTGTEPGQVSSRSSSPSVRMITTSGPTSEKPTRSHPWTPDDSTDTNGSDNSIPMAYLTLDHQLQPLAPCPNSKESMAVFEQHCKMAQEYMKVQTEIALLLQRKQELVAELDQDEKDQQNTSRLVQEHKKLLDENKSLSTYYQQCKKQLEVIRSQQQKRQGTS

PLK2 = target: T36, PLK2 (Homo sapiens, UniProt Q9NYY3)
T36 construct: purchased Eurofins DiscoverX KINOMEscan

T3 sequence (Q16513 whole entry): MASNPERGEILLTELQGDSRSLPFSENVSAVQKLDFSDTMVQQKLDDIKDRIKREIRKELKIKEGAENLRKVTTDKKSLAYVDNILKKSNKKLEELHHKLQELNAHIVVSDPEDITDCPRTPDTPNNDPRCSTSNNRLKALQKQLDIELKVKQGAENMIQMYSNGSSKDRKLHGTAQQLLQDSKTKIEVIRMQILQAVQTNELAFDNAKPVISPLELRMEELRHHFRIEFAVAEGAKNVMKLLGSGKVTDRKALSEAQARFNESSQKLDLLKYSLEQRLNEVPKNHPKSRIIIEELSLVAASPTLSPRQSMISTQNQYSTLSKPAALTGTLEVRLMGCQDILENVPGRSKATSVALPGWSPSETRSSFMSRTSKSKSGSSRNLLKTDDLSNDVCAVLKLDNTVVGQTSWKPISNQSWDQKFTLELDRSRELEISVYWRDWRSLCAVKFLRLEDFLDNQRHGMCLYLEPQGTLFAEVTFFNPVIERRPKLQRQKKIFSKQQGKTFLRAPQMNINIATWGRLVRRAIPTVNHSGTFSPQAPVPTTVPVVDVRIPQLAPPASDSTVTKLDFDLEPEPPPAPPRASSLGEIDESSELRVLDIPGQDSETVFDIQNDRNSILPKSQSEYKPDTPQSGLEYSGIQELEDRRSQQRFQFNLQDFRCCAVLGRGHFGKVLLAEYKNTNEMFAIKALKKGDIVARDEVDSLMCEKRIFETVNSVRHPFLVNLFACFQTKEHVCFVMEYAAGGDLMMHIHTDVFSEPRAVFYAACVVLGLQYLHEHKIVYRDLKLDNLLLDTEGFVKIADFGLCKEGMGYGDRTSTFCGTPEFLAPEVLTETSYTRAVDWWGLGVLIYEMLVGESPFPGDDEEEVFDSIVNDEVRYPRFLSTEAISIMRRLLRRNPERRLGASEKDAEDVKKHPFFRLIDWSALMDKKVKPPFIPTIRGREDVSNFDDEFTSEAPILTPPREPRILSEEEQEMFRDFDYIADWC

CC(C)NC(=O)COc1cccc(-c2nc(Nc3ccc4[nH]ncc4c3)c3ccccc3n2)c1 [KD025, 2-(3-(4-((1H-indazol-5-yl)amino)quinazolin-2-yl)phenoxy)-N-isopropylacetamide] gave a remaining binding at 10 µM (PLK1) of 100%, a remaining binding at 10 µM (PRKG1) of 100% and a remaining binding at 10 µM (PKN2) of 84%. The remaining binding at 10 µM [1] was 93%, the remaining binding at 10 µM (RIPK2) was 92% and the remaining binding at 10 µM (MEK4) was 100%. The remaining binding at 10 µM (ACVRL1) was 76%, the remaining binding at 10 µM (DYRK2) was 86% and the remaining binding at 10 µM (KIT(D816V)) was 57%. It also gave a remaining binding at 10 µM (CAMK4) of 100%, a remaining binding at 10 µM (ACVR1) of 32% and a remaining binding at 10 µM (SIK) of 72%. For the same molecule, the remaining binding at 10 µM (AMPK-alpha2) was 75%, the remaining binding at 10 µM (AKT3) was 100% and the remaining binding at 10 µM (RIOK3) was 6.7%. For the same molecule, the remaining binding at 10 µM (TNK1) was 88%, the remaining binding at 10 µM (DRAK2) was 85% and the remaining binding at 10 µM (FLT3(N841I)) was 19%. It also gave a remaining binding at 10 µM (PIK3C2B) of 67%, a remaining binding at 10 µM (YANK2) of 88% and a remaining binding at 10 µM (FLT3(D835Y)) of 46%. The remaining binding at 10 µM (ARK5) was 100%, the remaining binding at 10 µM (CAMKK2) was 100% and the remaining binding at 10 µM (MEK1) was 72%. The remaining binding at 10 µM (PIK3CA(Q546K)) was 84%, the remaining binding at 10 µM (PRKD1) was 72% and the remaining binding at 10 µM (TNIK) was 100%. For the same molecule, the remaining binding at 10 µM (CSNK1E) was 61%, the remaining binding at 10 µM (RIPK1) was 86% and the remaining binding at 10 µM (RET(V804M)) was 59%. The remaining binding at 10 µM (NEK6) was 80%, the remaining binding at 10 µM (JNK1) was 70% and the remaining binding at 10 µM (CHEK2) was 99%. The remaining binding at 10 µM (PIK3CA(E542K)) was 78%, the remaining binding at 10 µM (TAK1) was 68% and the remaining binding at 10 µM (PLK2) was 94%.
